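Step 1: Grow cells in 96-well plates. Step 2: Expose to compound for 48 hours at 5 concentrations. Step 3: Interpolate endpoints linearly; if unreached, use highest concentration. At the TGI there is no net growth.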

One experiment deals with CAKI-1 renal. Kind of experiment: inhibition of tumour cell growth, NCI panel, 48 h.
For the molecule `CN1CN(c2ccccc2)C2(CCN(CCCC3(c4cccs4)OCCO3)CC2)C1=O`, the TGI was above 100 µM.
In turn, `Cc1cc(O)cc(O)c1N=Nc1ccc([N+](=O)[O-])cc1` had a TGI of 38.9 µM.
The molecule `CCOC(=O)c1c(SCCN2CCCC2)n(-c2ccccc2)c(=S)n(-c2ccccc2)c1=O` had a TGI of 5.23 µM.
Take `Cc1nc2ccc([N+](=O)[O-])cc2c(=O)n1C(=S)Nc1cccc(Cl)c1`: the TGI worked out at 56 µM.
In turn, `Cc1cccc(C[C@@]2(SCc3ccccc3)C(C)(C)[C@@H]3CC[C@@]2(C)C3)n1` registered a TGI of 48.1 µM.
On the same count and under the same terms, to `O=C1/C(=C/c2ccc([N+](=O)[O-])cc2)CNC/C1=C\c1ccc([N+](=O)[O-])cc1` belongs 4.67 µM.
Regarding `C/C(=N/NC(=S)Nc1cccc(C)c1)c1ccccn1`, the TGI was determined as 9.07 µM.
On to `CCOc1ccc(N=C/C=C(\Cl)c2ccc3ccccc3c2)cc1`, for which the TGI is 34 µM.
Take `O=C(O)c1ccc(NS(=O)(=O)Cc2ccccc2)cc1`: the TGI was above 100 µM.
Turning to `Cc1ccc(C(=O)Nc2ccc(CP(=O)(O)O)cc2)cc1NC(=O)c1cccc(NC(=O)Nc2cccc(C(=O)Nc3cc(C(=O)Nc4ccc(CP(=O)(O)O)cc4)ccc3C)c2)c1`, the TGI is above 100 µM.
`CCOC(=O)c1cnc2[nH]ccn2c1=O` showed a TGI above 10 µM.

The subject of a further experiment is NCI-H460 lung. Kind of experiment: inhibition of tumour cell growth, NCI panel, 48 h.
Consider `CN1CN(c2ccccc2)C2(CCN(CCCC3(c4cccs4)OCCO3)CC2)C1=O`, for which the TGI was above 100 µM.
On to `Cc1cc(O)cc(O)c1N=Nc1ccc([N+](=O)[O-])cc1`, for which the TGI stood at 61 µM.
For `CCOC(=O)c1c(SCCN2CCCC2)n(-c2ccccc2)c(=S)n(-c2ccccc2)c1=O`, the TGI was determined as 12.3 µM.
For the molecule `Cc1nc2ccc([N+](=O)[O-])cc2c(=O)n1C(=S)Nc1cccc(Cl)c1`, the TGI turned out to be 52.6 µM.
`Cc1cccc(C[C@@]2(SCc3ccccc3)C(C)(C)[C@@H]3CC[C@@]2(C)C3)n1` gave a TGI of 31.3 µM.
For `O=C1/C(=C/c2ccc([N+](=O)[O-])cc2)CNC/C1=C\c1ccc([N+](=O)[O-])cc1`, the TGI stood at 12.7 µM.
`C/C(=N/NC(=S)Nc1cccc(C)c1)c1ccccn1` yielded a TGI of 5.59 µM.
Consider `CCOc1ccc(N=C/C=C(\Cl)c2ccc3ccccc3c2)cc1`, for which the TGI came out at 44.8 µM.
`O=C(O)c1ccc(NS(=O)(=O)Cc2ccccc2)cc1` returned a TGI above 100 µM.
Take `Cc1ccc(C(=O)Nc2ccc(CP(=O)(O)O)cc2)cc1NC(=O)c1cccc(NC(=O)Nc2cccc(C(=O)Nc3cc(C(=O)Nc4ccc(CP(=O)(O)O)cc4)ccc3C)c2)c1`: the TGI was above 100 µM.
In the case of `CCOC(=O)c1cnc2[nH]ccn2c1=O`, the TGI was above 10 µM.

In the next experiment the test system is OVCAR-3 ovarian. Kind of experiment: inhibition of tumour cell growth, NCI panel, 48 h.
`CN1CN(c2ccccc2)C2(CCN(CCCC3(c4cccs4)OCCO3)CC2)C1=O` had a TGI above 100 µM.
Take `Cc1cc(O)cc(O)c1N=Nc1ccc([N+](=O)[O-])cc1`: the TGI is above 100 µM.
The molecule `CCOC(=O)c1c(SCCN2CCCC2)n(-c2ccccc2)c(=S)n(-c2ccccc2)c1=O` gave a TGI of 3.35 µM.
`Cc1nc2ccc([N+](=O)[O-])cc2c(=O)n1C(=S)Nc1cccc(Cl)c1` had a TGI of 58.1 µM.
Take `Cc1cccc(C[C@@]2(SCc3ccccc3)C(C)(C)[C@@H]3CC[C@@]2(C)C3)n1`: the TGI was found to be 29.5 µM.
The same measure, in the same setting: to `O=C1/C(=C/c2ccc([N+](=O)[O-])cc2)CNC/C1=C\c1ccc([N+](=O)[O-])cc1` belongs 9.61 µM.
`C/C(=N/NC(=S)Nc1cccc(C)c1)c1ccccn1` had a TGI of 0.118 µM.
`CCOc1ccc(N=C/C=C(\Cl)c2ccc3ccccc3c2)cc1` displayed a TGI of 31.5 µM.
The molecule `O=C(O)c1ccc(NS(=O)(=O)Cc2ccccc2)cc1` showed a TGI above 100 µM.
In turn, `Cc1ccc(C(=O)Nc2ccc(CP(=O)(O)O)cc2)cc1NC(=O)c1cccc(NC(=O)Nc2cccc(C(=O)Nc3cc(C(=O)Nc4ccc(CP(=O)(O)O)cc4)ccc3C)c2)c1` had a TGI above 100 µM.
For `CCOC(=O)c1cnc2[nH]ccn2c1=O`, the TGI is above 10 µM.

In a further experiment the test system is OVCAR-5 ovarian. The experiment can be described thus: inhibition of tumour cell growth, NCI panel, 48 h.
As to `CN1CN(c2ccccc2)C2(CCN(CCCC3(c4cccs4)OCCO3)CC2)C1=O`, the TGI was above 100 µM.
On to `Cc1cc(O)cc(O)c1N=Nc1ccc([N+](=O)[O-])cc1`, for which the TGI came to 85.1 µM.
As for `CCOC(=O)c1c(SCCN2CCCC2)n(-c2ccccc2)c(=S)n(-c2ccccc2)c1=O`, the TGI is above 59.5 µM.
Molecule `Cc1nc2ccc([N+](=O)[O-])cc2c(=O)n1C(=S)Nc1cccc(Cl)c1` came in with a TGI above 100 µM.
For `Cc1cccc(C[C@@]2(SCc3ccccc3)C(C)(C)[C@@H]3CC[C@@]2(C)C3)n1`, the TGI was 34.9 µM.
Still for that read-out and setting: to `O=C1/C(=C/c2ccc([N+](=O)[O-])cc2)CNC/C1=C\c1ccc([N+](=O)[O-])cc1` belongs above 69.6 µM.
Same read-out and setting: to `C/C(=N/NC(=S)Nc1cccc(C)c1)c1ccccn1` belongs 2.67 µM.
Molecule `CCOc1ccc(N=C/C=C(\Cl)c2ccc3ccccc3c2)cc1` returned a TGI of 36.3 µM.
Consider `O=C(O)c1ccc(NS(=O)(=O)Cc2ccccc2)cc1`, for which the TGI is above 100 µM.
`Cc1ccc(C(=O)Nc2ccc(CP(=O)(O)O)cc2)cc1NC(=O)c1cccc(NC(=O)Nc2cccc(C(=O)Nc3cc(C(=O)Nc4ccc(CP(=O)(O)O)cc4)ccc3C)c2)c1` showed a TGI above 100 µM.
In turn, `CCOC(=O)c1cnc2[nH]ccn2c1=O` returned a TGI above 10 µM.

In the next experiment the test system is RPMI-8226 leukemia. The experiment can be described thus: inhibition of tumour cell growth, NCI panel, 48 h.
`CN1CN(c2ccccc2)C2(CCN(CCCC3(c4cccs4)OCCO3)CC2)C1=O` displayed a TGI above 100 µM.
Still for that read-out and setting: to `Cc1cc(O)cc(O)c1N=Nc1ccc([N+](=O)[O-])cc1` belongs 39.8 µM; to `CCOC(=O)c1c(SCCN2CCCC2)n(-c2ccccc2)c(=S)n(-c2ccccc2)c1=O`, 5.87 µM.
`Cc1nc2ccc([N+](=O)[O-])cc2c(=O)n1C(=S)Nc1cccc(Cl)c1` gave a TGI of 19.6 µM.
On the same count and under the same terms, to `Cc1cccc(C[C@@]2(SCc3ccccc3)C(C)(C)[C@@H]3CC[C@@]2(C)C3)n1` belongs 30.5 µM; to `O=C1/C(=C/c2ccc([N+](=O)[O-])cc2)CNC/C1=C\c1ccc([N+](=O)[O-])cc1`, 2.75 µM; to `C/C(=N/NC(=S)Nc1cccc(C)c1)c1ccccn1`, 13.7 µM.
The same measure, in the same setting: to `CCOc1ccc(N=C/C=C(\Cl)c2ccc3ccccc3c2)cc1` belongs 24.7 µM; to `O=C(O)c1ccc(NS(=O)(=O)Cc2ccccc2)cc1`, above 100 µM; to `Cc1ccc(C(=O)Nc2ccc(CP(=O)(O)O)cc2)cc1NC(=O)c1cccc(NC(=O)Nc2cccc(C(=O)Nc3cc(C(=O)Nc4ccc(CP(=O)(O)O)cc4)ccc3C)c2)c1`, above 100 µM.
Turning to `CCOC(=O)c1cnc2[nH]ccn2c1=O`, the TGI is above 10 µM.

The record behind these values is PubChem BioAssay (NCI).
